{
  "source": "paper PMC4979471",
  "about": "(Cell Death Discovery, 2015)",
  "assay_in_all_cases": "Kinase selectivity, P33-radiolabeled assay",
  "format_in_all_cases": "biochemical",
  "settings_in_all_cases": "10 μM ATP",
  "key": {"CDC7/DBF4": {"molecular_target": "T1, CDC7/DBF4 (Homo sapiens, UniProt O00311)", "T1 construct": "purchased Reaction Biology Corp", "how_it_was_run": "(§1)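 Each enzyme was exposed to 10 μM compound, with duplicate measurements, in reactions containing 10 μM ATP. Numbers are remaining activity as a percent of the vehicle (DMSO) signal.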"}, "CK1d": {"molecular_target": "T2, CK1d (Homo sapiens, UniProt P48730)", "T2 construct": "purchased Reaction Biology Corp", "T2 sequence (P48730 whole entry)": "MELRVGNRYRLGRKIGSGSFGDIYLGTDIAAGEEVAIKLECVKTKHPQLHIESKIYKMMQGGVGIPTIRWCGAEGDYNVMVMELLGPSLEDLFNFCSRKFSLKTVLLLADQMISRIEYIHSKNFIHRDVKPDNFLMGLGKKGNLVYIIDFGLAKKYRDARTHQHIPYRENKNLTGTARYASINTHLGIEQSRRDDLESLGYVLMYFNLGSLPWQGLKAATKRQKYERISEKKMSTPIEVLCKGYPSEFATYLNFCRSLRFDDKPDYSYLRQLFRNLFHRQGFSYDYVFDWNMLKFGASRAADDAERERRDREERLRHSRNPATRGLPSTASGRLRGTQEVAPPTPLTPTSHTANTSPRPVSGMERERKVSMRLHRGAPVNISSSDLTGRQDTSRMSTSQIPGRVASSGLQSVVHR", "how_it_was_run": "as §1"}, "CK2a2": {"molecular_target": "T3, CK2a2 (Homo sapiens, UniProt P19784)", "T3 construct": "purchased Reaction Biology Corp", "T3 sequence (P19784 whole entry)": "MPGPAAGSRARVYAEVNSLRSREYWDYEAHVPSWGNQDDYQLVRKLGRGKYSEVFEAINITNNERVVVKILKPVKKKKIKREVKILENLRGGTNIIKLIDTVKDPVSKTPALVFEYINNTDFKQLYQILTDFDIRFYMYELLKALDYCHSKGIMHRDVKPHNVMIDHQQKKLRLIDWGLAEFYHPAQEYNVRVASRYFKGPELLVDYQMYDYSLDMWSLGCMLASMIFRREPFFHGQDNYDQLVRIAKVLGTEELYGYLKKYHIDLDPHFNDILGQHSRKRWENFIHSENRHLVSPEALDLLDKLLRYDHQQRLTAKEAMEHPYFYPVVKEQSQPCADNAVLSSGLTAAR", "how_it_was_run": "as §1"}, "EPHA5": {"molecular_target": "T4, EPHA5 (Homo sapiens, UniProt P54756)", "T4 construct": "purchased Reaction Biology Corp", "T4 sequence (P54756 25-1037)": "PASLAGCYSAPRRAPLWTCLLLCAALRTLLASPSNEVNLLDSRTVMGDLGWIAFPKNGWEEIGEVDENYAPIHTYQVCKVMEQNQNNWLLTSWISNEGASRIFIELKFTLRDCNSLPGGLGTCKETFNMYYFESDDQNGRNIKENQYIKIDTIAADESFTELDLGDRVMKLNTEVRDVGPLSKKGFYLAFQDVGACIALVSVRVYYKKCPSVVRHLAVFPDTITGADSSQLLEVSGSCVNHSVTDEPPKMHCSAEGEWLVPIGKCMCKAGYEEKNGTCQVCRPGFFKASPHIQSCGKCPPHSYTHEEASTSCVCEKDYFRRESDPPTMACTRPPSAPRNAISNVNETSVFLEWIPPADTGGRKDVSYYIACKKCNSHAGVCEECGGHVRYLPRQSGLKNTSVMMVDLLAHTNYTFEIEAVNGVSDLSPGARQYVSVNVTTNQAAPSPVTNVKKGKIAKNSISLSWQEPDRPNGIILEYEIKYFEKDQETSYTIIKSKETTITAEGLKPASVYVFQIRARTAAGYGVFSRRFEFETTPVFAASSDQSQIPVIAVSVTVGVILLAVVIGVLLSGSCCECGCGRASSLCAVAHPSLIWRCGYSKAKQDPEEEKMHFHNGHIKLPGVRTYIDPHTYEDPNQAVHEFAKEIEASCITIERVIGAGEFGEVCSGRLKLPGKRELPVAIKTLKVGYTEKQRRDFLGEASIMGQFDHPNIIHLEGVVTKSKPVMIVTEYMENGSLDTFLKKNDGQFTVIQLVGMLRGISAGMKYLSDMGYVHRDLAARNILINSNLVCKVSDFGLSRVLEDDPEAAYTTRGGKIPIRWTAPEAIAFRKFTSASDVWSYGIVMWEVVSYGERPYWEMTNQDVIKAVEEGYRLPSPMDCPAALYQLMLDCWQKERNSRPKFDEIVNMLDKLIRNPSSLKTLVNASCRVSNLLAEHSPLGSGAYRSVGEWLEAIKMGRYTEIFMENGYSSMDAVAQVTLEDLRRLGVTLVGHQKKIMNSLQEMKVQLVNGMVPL", "how_it_was_run": "as §1"}, "HGK/MAP4K4": {"molecular_target": "T5, HGK/MAP4K4 (Homo sapiens, UniProt O95819)", "T5 construct": "purchased Reaction Biology Corp", "T5 sequence (O95819 whole entry)": "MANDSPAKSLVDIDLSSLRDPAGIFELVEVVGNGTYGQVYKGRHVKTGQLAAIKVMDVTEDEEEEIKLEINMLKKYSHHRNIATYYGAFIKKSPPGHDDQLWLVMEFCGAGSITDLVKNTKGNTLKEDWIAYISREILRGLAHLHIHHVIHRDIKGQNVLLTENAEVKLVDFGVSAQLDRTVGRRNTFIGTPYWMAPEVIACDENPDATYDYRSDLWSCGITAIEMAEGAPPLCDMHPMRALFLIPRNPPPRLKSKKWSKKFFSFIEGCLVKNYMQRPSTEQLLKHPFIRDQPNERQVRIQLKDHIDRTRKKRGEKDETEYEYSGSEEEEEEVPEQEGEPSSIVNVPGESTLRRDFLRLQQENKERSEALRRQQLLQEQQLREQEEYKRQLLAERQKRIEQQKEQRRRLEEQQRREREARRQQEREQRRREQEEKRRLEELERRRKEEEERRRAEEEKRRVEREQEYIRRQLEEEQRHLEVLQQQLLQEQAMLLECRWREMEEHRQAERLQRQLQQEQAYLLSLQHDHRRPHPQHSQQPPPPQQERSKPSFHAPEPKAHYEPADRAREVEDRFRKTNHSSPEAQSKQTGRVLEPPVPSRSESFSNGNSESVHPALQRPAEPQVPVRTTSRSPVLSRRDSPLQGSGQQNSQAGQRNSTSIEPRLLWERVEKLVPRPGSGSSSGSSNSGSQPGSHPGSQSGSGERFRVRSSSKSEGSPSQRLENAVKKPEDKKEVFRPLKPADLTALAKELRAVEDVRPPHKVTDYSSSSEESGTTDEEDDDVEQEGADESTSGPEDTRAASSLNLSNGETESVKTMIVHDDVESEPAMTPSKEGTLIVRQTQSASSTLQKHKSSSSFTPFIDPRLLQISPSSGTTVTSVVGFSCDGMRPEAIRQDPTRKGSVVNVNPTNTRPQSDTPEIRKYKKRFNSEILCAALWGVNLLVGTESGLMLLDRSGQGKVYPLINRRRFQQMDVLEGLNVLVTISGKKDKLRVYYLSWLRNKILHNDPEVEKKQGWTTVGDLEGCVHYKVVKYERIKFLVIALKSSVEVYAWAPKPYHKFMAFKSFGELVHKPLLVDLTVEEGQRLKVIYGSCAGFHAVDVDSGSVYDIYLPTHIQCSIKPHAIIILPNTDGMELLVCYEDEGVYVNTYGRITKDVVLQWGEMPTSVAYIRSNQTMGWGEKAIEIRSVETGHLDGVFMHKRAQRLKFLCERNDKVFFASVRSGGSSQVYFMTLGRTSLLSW", "how_it_was_run": "as §1"}, "JNK2": {"molecular_target": "T6, JNK2 (Homo sapiens, UniProt P45984)", "T6 construct": "purchased Reaction Biology Corp", "T6 sequence (P45984 whole entry)": "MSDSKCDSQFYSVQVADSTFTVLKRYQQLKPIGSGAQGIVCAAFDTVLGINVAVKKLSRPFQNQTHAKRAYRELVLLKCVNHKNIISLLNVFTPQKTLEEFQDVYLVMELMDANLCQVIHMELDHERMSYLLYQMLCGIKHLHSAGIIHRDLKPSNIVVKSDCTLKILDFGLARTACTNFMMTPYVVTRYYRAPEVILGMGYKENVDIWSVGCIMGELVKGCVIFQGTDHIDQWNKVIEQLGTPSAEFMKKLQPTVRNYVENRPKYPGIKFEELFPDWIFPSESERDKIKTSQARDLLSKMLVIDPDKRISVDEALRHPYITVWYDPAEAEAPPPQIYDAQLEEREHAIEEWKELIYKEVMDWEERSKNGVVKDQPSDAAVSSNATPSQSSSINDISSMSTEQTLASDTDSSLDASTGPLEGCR", "how_it_was_run": "as §1"}, "LATS1": {"molecular_target": "T7, LATS1 (Homo sapiens, UniProt O95835)", "T7 construct": "purchased Reaction Biology Corp", "T7 sequence (O95835 1-1130)": "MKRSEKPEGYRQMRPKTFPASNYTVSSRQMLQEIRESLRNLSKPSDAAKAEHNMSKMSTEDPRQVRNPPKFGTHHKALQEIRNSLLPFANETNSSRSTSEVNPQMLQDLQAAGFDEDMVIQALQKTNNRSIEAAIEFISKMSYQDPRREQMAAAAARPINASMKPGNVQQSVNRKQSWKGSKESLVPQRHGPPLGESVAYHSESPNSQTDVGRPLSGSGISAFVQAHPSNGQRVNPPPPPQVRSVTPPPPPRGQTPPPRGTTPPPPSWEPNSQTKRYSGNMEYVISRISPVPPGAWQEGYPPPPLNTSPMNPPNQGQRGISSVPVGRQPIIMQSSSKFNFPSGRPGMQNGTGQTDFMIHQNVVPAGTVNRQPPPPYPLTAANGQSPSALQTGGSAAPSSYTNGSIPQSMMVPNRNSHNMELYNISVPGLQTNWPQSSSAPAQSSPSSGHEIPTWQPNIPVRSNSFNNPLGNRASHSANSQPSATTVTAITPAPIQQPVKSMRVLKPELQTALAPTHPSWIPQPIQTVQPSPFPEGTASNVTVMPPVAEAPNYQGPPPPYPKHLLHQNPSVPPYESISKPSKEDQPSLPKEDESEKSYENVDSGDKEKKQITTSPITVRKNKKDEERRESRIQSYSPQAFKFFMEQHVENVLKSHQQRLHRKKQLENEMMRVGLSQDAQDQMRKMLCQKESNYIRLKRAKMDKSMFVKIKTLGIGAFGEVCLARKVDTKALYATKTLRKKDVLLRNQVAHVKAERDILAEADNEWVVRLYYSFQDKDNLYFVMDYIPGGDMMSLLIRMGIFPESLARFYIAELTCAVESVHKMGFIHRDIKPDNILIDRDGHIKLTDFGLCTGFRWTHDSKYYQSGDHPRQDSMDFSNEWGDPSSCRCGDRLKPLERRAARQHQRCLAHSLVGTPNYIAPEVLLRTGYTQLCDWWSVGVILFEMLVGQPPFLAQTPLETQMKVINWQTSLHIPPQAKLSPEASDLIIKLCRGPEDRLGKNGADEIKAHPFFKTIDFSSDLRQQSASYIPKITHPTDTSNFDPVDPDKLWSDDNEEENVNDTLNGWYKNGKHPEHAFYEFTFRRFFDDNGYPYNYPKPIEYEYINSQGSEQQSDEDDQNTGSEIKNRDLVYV", "how_it_was_run": "as §1"}, "P38g": {"molecular_target": "T8, P38g (Homo sapiens, UniProt P53778)", "T8 construct": "purchased Reaction Biology Corp", "T8 sequence (P53778 1-367)": "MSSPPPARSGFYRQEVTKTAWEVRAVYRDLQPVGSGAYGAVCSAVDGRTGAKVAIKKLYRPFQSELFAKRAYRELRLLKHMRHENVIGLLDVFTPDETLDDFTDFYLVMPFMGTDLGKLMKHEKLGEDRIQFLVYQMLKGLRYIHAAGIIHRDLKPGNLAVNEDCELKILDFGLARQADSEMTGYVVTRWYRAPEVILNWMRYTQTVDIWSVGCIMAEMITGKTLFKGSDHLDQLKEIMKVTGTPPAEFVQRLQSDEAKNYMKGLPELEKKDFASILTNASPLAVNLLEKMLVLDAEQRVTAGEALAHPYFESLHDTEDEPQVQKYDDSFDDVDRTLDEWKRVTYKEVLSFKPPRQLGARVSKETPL", "how_it_was_run": "as §1"}, "PKA": {"molecular_target": "T9, PKA (Homo sapiens, UniProt P17612)", "T9 construct": "purchased Reaction Biology Corp", "how_it_was_run": "as §1"}, "SIK1": {"molecular_target": "T10, SIK1 (Homo sapiens, UniProt P57059)", "T10 construct": "purchased Reaction Biology Corp", "T10 sequence (P57059 whole entry)": "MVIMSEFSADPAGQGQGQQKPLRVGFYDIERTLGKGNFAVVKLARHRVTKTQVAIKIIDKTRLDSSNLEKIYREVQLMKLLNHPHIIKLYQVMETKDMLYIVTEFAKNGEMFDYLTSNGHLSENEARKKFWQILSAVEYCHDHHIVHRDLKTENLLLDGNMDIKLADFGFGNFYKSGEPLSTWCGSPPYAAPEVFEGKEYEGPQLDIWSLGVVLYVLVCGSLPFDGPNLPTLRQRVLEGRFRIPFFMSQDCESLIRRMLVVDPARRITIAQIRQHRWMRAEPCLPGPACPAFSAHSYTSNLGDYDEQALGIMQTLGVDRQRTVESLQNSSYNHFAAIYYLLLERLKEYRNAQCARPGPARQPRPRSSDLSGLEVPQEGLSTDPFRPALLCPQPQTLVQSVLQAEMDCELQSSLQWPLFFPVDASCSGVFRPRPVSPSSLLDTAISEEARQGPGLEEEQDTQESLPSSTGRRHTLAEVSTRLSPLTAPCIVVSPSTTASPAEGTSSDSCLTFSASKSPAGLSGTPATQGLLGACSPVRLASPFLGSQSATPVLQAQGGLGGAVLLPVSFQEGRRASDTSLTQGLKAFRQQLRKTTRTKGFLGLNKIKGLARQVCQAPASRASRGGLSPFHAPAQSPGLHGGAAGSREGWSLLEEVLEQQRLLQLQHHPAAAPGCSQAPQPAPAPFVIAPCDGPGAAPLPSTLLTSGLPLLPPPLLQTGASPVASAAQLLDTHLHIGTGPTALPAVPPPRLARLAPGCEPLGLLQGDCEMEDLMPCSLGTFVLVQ", "how_it_was_run": "as §1"}, "STK32C/YANK3": {"molecular_target": "T11, STK32C/YANK3 (Homo sapiens, UniProt Q86UX6)", "T11 construct": "purchased Reaction Biology Corp", "how_it_was_run": "as §1"}, "c-Src": {"molecular_target": "T12, c-Src (Homo sapiens, UniProt P12931)", "T12 construct": "purchased Reaction Biology Corp", "T12 sequence (P12931 whole entry)": "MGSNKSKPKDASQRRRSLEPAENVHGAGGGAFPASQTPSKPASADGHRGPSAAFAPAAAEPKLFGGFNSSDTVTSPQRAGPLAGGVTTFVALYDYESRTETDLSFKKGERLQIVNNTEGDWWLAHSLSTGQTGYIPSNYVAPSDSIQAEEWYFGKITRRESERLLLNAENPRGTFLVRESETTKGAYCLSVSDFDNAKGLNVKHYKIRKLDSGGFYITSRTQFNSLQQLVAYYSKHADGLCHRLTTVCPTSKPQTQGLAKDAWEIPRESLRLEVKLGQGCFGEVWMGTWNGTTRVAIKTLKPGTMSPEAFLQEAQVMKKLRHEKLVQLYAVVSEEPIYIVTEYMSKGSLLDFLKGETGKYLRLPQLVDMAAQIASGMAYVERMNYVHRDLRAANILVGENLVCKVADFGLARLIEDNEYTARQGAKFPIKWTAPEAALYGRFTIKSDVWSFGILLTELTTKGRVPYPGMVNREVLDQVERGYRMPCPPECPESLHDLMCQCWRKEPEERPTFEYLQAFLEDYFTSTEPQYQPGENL", "how_it_was_run": "as §1"}, "[1]": {"settings": "read-out: % Enzyme Activity (relative to DMSO controls) AVG"}, "[2]": {"settings": "read-out: % Enzyme Activity (relative to DMSO controls) Data 1"}, "[3]": {"settings": "read-out: % Enzyme Activity (relative to DMSO controls) Data 2"}},
  "note": "Like-named read-outs stand apart in the source and are kept apart here.",
  "data": [
    {"smiles": "CC(C)(C)C(=O)N1N=CC[C@H]1c1ccccc1", "note": "[GSK′963]", "values": [
      {"measurement": "remaining activity at 10 µM", "setting": "CDC7/DBF4; [1]", "result": 103, "unit": "%"},
      {"measurement": "remaining activity at 10 µM", "setting": "CDC7/DBF4; [2]", "result": 105, "unit": "%"},
      {"measurement": "remaining activity at 10 µM", "setting": "CDC7/DBF4; [3]", "result": 101, "unit": "%"},
      {"measurement": "remaining activity at 10 µM", "setting": "CK1d; [1]", "result": 96.7, "unit": "%"},
      {"measurement": "remaining activity at 10 µM", "setting": "CK1d; [2]", "result": 94.1, "unit": "%"},
      {"measurement": "remaining activity at 10 µM", "setting": "CK1d; [3]", "result": 99.2, "unit": "%"},
      {"measurement": "remaining activity at 10 µM", "setting": "CK2a2; [1]", "result": 107, "unit": "%"},
      {"measurement": "remaining activity at 10 µM", "setting": "CK2a2; [2]", "result": 108, "unit": "%"},
      {"measurement": "remaining activity at 10 µM", "setting": "CK2a2; [3]", "result": 107, "unit": "%"},
      {"measurement": "remaining activity at 10 µM", "setting": "EPHA5; [1]", "result": 107, "unit": "%"},
      {"measurement": "remaining activity at 10 µM", "setting": "EPHA5; [2]", "result": 105, "unit": "%"},
      {"measurement": "remaining activity at 10 µM", "setting": "EPHA5; [3]", "result": 108, "unit": "%"},
      {"measurement": "remaining activity at 10 µM", "setting": "HGK/MAP4K4; [1]", "result": 95.7, "unit": "%"},
      {"measurement": "remaining activity at 10 µM", "setting": "HGK/MAP4K4; [2]", "result": 94.5, "unit": "%"},
      {"measurement": "remaining activity at 10 µM", "setting": "HGK/MAP4K4; [3]", "result": 97, "unit": "%"},
      {"measurement": "remaining activity at 10 µM", "setting": "JNK2; [1]", "result": 100, "unit": "%"},
      {"measurement": "remaining activity at 10 µM", "setting": "JNK2; [2]", "result": 96.4, "unit": "%"},
      {"measurement": "remaining activity at 10 µM", "setting": "JNK2; [3]", "result": 104, "unit": "%"},
      {"measurement": "remaining activity at 10 µM", "setting": "LATS1; [1]", "result": 103, "unit": "%"},
      {"measurement": "remaining activity at 10 µM", "setting": "LATS1; [2]", "result": 103, "unit": "%"},
      {"measurement": "remaining activity at 10 µM", "setting": "LATS1; [3]", "result": 102, "unit": "%"},
      {"measurement": "remaining activity at 10 µM", "setting": "P38g; [1]", "result": 101, "unit": "%"},
      {"measurement": "remaining activity at 10 µM", "setting": "P38g; [2]", "result": 103, "unit": "%"},
      {"measurement": "remaining activity at 10 µM", "setting": "P38g; [3]", "result": 98.7, "unit": "%"},
      {"measurement": "remaining activity at 10 µM", "setting": "PKA; [1]", "result": 110, "unit": "%"},
      {"measurement": "remaining activity at 10 µM", "setting": "PKA; [2]", "result": 112, "unit": "%"},
      {"measurement": "remaining activity at 10 µM", "setting": "PKA; [3]", "result": 107, "unit": "%"},
      {"measurement": "remaining activity at 10 µM", "setting": "SIK1; [1]", "result": 113, "unit": "%"},
      {"measurement": "remaining activity at 10 µM", "setting": "SIK1; [2]", "result": 113, "unit": "%"},
      {"measurement": "remaining activity at 10 µM", "setting": "SIK1; [3]", "result": 113, "unit": "%"},
      {"measurement": "remaining activity at 10 µM", "setting": "STK32C/YANK3; [1]", "result": 98.9, "unit": "%"},
      {"measurement": "remaining activity at 10 µM", "setting": "STK32C/YANK3; [2]", "result": 97.5, "unit": "%"},
      {"measurement": "remaining activity at 10 µM", "setting": "STK32C/YANK3; [3]", "result": 100, "unit": "%"},
      {"measurement": "remaining activity at 10 µM", "setting": "c-Src; [1]", "result": 109, "unit": "%"},
      {"measurement": "remaining activity at 10 µM", "setting": "c-Src; [2]", "result": 112, "unit": "%"},
      {"measurement": "remaining activity at 10 µM", "setting": "c-Src; [3]", "result": 106, "unit": "%"}
    ]}
  ]
}
